Assay results published in BindingDB's records for doi:10.1021/jm030795v (Wroclaw University of Technology, 2003).
Where a name gives a salt, the structure may show the parent alone.

Target: Cytosol aminopeptidase (Sus scrofa)
Assay: Binding affinity for cytosolic leucine aminopeptidase (LAP) from porcine kidney

Row | Ki [µM] | SMILES
1 | 0.06 | CC(C)CC(N)C=O (stereo not drawn) [2-Amino-4-methyl-pentanal]
2 | 58 | CC(C)CC(OP(=O)(O)C(N)CC(C)C)C(=O)O (stereo not drawn) [2-[(1-Amino-3-methyl-butyl)-hydroxy-phosphinoyloxy]-4-methyl-pentanoic acid]

Row | SMILES | Ki [µM]
3 | CC(C)CC(O)P(=O)(O)NCC(=O)O (stereo not drawn) [{[hydroxy(1-hydroxy-3-methylbutyl)phosphoryl]amino}acetic acid; dilithium salt] | 4.88
